Entries after “also recorded” stand apart in the source; their conditions may differ. Where a name gives a salt, the structure may show the parent alone.
How the values were obtained:
[1] = tested on: TNFα; test: Whole blood assay: inhibition of LPS-induced TNFα release (TNF ELISA); format: cell-based, human; conditions: for effect on TNF production or release (in words) / inhibition of TNF production at the upper range of the dose curve: 25% whole blood diluted in plasmalyte
Method: […]. […] The experiment was conducted at least 2 times in duplicates and the fitted representation above consists of the average of those experiments. The IC50 values were calculated using logistic analysis on Origin Software.
FIG. 4 illustrates a graph showing the inhibition of release of TNF α by terbutaline and salbutamol. This assay evaluated the inhibition of TNF production by salbutamol and terbutaline using the whole blood assay. This method utilized an LPS induction at 10 μg/ml in 25% whole blood diluted in plasmalyte. […] Higher doses were not evaluated because the equivalent mg/kg doses would be too high, therefore, limiting their practical use under therapeutic conditions. IC50 values were not calculated. […] The data and the fit were calculated using Origin Software.
FIG. 5 illustrates a graph showing the inhibition of TNF production by butoxamine, and induction of TNF release by atenolol and metoprolol. […].
This assay measured prazosin alone, and the combination of: prasozin/butoxamine, prasozin/butoxamine/terbutaline, prasozin/butoxamine/salbutamol, and prazosin/salbutamol. […].
We collected whole human blood in a polypropylene tube. Containing a final concentration of 10 units of heparin per ml of blood using gravity flow with 19-gauge needle. To prevent non-specific activation of cells, we used the blood within 30 minutes of draw. The blood was diluted with plasmalyte to 50%, 40%, 30%, 20%, and 10% concentrations. In a matrix based assay set up, each blood dilution was treated with various concentrations of LPS dosages ranging from 60 μg/ml, 10 μg/ml, 6 μg/ml, 1 μg/ml, 0.6 μg/ml, 0.1 μg/ml, and 0.06 μg/ml. The LPS treated blood was incubated at 37 degree in an incubator with continues rotation. Following the incubation, the blood was centrifuged and the plasma was evaluated for TNF quantification using the ELISA assay (BD Biosciences, Los Angeles, Calif.).
We initially tested the ability of LPS to produce TNF from monocytes, by adding various dilutions of LPS (60 μg, 10 μg, 6 μg, 1 μg, 0.6 μg, 0.1 μg, 0.06 μg) per ml of diluted blood (blood dilutions 50%, 40%, 20%, 10%, and 5%). Blood dilutions were made in the clinically relevant buffer “plasmalyte”. LPS treated blood was incubated at 37° C. for 2 hr. Following incubation, we separated the plasma samples by centrifugation. We evaluated the samples using TNF-ELISA. […] Relying on FIG. 1, we conducted a blood dilution curve with 10 μg/ml LPS (FIG. 2). Based on interpretation of FIGS. 1 and 2, we concluded that blood dilution of 20-25% would be ideal at an LPS dose of 10 μg/ml. Based on the FIG. 2 data, we found LPS causes a near linear increase of TNF production in 20% blood. […] If there is too much blood, there will be heavy concentrations of TNF production, exceeding the detection levels of the assay. Using this optimization data, we created a fixed method to measure the inhibition of TNF production or release with various drugs and drug combinations.
Blood was drawn from thirteen independent donors under an IRB approved protocol. […] The blood samples were spun and plasma evaluated for TNF production using TNF ELISA from BD Biosciences. […]. […] It could also provide a possible treatment for rheumatoid arthritis. […]

[2] = tested on: arthritis; conditions: cited from earlier work; for inhibition of inflammation in an arthritis model: in vivo
[3] = tested on: knee and ankle joints; test: Histology of knee and ankle joints after CIA; conditions: CIA mice
[4] = Body weight in mouse CIA model (gross measure of drug toxicity); conditions: CIA mice, days 18-35
[5] = tested on: collagen induced arthritis; conditions: cited from earlier work
[6] = tested on: arthritis; conditions: rat arthritis model; cited from earlier work
[7] = CIA mice, same experimental protocol; cited from earlier work

**Q.** Which “effect on TNF production or release (in words)” value (“effect” below) ([1]; LPS 10 μg/ml) does the source give for `COc1ccc(OC)c(C(O)C(C)NC(C)(C)C)c1` (racemic) [Butoxamine, DL-erythro-α-(2,5-dimethoxyphenyl)-β-t-butyl aminopropanol hydrochloride] here?
**A.** very little inhibition if at all

**Q.** And the “inhibition of TNF production at the upper range of the dose curve” value ([1]; LPS 10 μg/ml)?
**A.** ≤ 20%

**Q.** What about the “inhibition of arthritis in animals (in words)” value ([2]; previous reports) of the same compound?
**A.** potent inhibitor of arthritis in animals

**Q.** With `CC(C)NCC(O)COc1ccc(CC(N)=O)cc1` (stereo not shown) [Atenolol, atenolol] as the compound, how does the “effect” value ([1]; LPS 10 μg/ml) read?
**A.** significant elevation in the TNF response; also recorded: activators of TNF release

**Q.** For `COCCc1ccc(OCC(O)CNC(C)C)cc1` (stereo not shown) [Metoprolol, metoprolol], which “effect” value ([1]; LPS 10 μg/ml) is on record?
**A.** significant elevation in the TNF response; also recorded: activators of TNF release

**Q.** For `Cc1ccc(N(CC2=NCCN2)c2cccc(O)c2)cc1` [Phentolamine, phentolamine], which “effect” value ([1]; LPS 10 μg/ml) is on record?
**A.** does not have the same level of inhibition as prazosin and yohimbine alone

**Q.** With `COc1cc2nc(N3CCN(C(=O)c4ccco4)CC3)nc(N)c2cc1OC` [Prazosin, prazosin] as the compound, how does the “joint histology (Toluidine blue)” value [3] read?
**A.** prevents inflammation, bone and cartilage destruction, pannus formation and bone erosion

**Q.** What about the “drug concentration at which TNF activity is inhibited” value ([1]; LPS 10 μg/ml, 25% blood diluted in plasmalyte) of the same compound?
**A.** 20 µg/mL

**Q.** What about the “effect” value ([1]; LPS 10 μg/ml) of the same compound?
**A.** lowest IC50

**Q.** What about the “inhibition of TNF production at the upper range of the dose curve” value ([1]; LPS 10 μg/ml) of the same compound?
**A.** ~100%

**Q.** What about the “inhibition of TNF at the upper range of the dose curve, thirteen donors” value ([1]; blood of thirteen independent donors, 37 degrees, 2 hours) of the same compound?
**A.** ~100%

**Q.** And the body weight change [4]?
**A.** weight remained constant

**Q.** What about the body weight change ([4]; listed as NM2014) of the same compound?
**A.** essentially unchanged

**Q.** Which results are given for `CC(C)(C)NCC(O)c1ccc(O)c(CO)c1` (stereo not shown) [Salbutamol, salbutamol]?
**A.** inhibition of inflammation in an arthritis model [2]: 50%; severity of collagen-induced arthritis (in words) ([5]; mouse, in vivo): reduces the severity of collagen-induced arthritis

**Q.** Which “effect” value ([1]; LPS 10 μg/ml) does the source give for `CC(C)(C)NCC(O)c1cc(O)cc(O)c1` (stereo not shown) [Terbutaline, terbutaline] here?
**A.** minimal effect

**Q.** What about the “inhibition of inflammation in an arthritis model” value [2] of the same compound?
**A.** 50%

**Q.** And the “benefit in collagen induced arthritis” value ([5]; mice)?
**A.** 50%

**Q.** What about the “reduction of disease severity” value [6] of the same compound?
**A.** 50%

**Q.** With `COC(=O)[C@@H]1[C@H]2C[C@H]3c4[nH]c5ccccc5c4CCN3C[C@@H]2CC[C@@H]1O` [Yohimbine, yohimbine] as the compound, how does the IC50 ([1]; Homo sapiens, LPS 10 μg/ml, 25% blood diluted in plasmalyte, 37° C. 2 h) read?
**A.** 70 to 100 µg/mL

**Q.** And the “inhibition of TNF production at the upper range of the dose curve” value ([1]; LPS 10 μg/ml)?
**A.** 80%

**Q.** With Enbrel as the compound, how does the “body weight change, historical Enbrel data” value [7] read?
**A.** essentially unchanged

Reference: patent US20110195974A1, “METHODS OF TREATING INFLAMMATORY CONDITIONS WITH ADRENERGIC ANTAGONISTS” (priority 2007, published 2011)
